Test results from ChEMBL document CHEMBL6109111.
Calls of active or inactive are those of the source. The calls are words filed in the database; no cut-off is given here.

System: Mus musculus
Experiment: Inhibition of morphine-mediated intestinal motility in male Kunming mouse assessed as propulsion function at 4 mg/kg, ip pretreated with compound for 30 mins followed by morphine addition and measured after 30 mins by charcoal gavage based Intestinal motility assay
Type: functional, organism-based
Conditions: time 60.0 min

## C=CCN1CC[C@]23c4c5ccc(O)c4O[C@H]2C(=O)CC[C@@]3(O)[C@H]1C5
  Activity: Active
